Results taken from the supplement of paper PMC10307832.

Columns and labels:
Assay in all cases: relative viability (nuclei count vs DMSO), 5 days (fraction); higher = more cells survive
Metformin + OSI-027 = compound: CN(C)C(=N)NC(=N)N [Metformin] + COc1cccc2cc(-c3nc([C@H]4CC[C@H](C(=O)O)CC4)n4ncnc(N)c34)[nH]c12 [OSI-027] (partner 0.5 µM)
In short: (§1)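 For relative viability, nuclei counts in treated wells were divided by those in vehicle wells. Lung cancer cell lines had been pin-tool dosed in 1536-well plates the day after seeding and cultured for 5 days, then fixed and stained in one step (final 0.05% Triton X-100, 1% formaldehyde, 1 ug/ml Hoechst) and imaged at 4×. Doses were one drug alone or a fixed anchor-drug dose plus five library-drug doses (not always all listed) in √10 steps, and values are duplicate-plate medians.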

Metformin + Pictilisib = compound: CN(C)C(=N)NC(=N)N [Metformin] + CS(=O)(=O)N1CCN(Cc2cc3nc(-c4cccc5[nH]ncc45)nc(N4CCOCC4)c3s2)CC1 [Pictilisib] (partner 1 µM)
In short: as §1

Apatinib + Lapatinib = compound: N#CC1(c2ccc(NC(=O)c3cccnc3NCc3ccncc3)cc2)CCCC1 [Apatinib] + CS(=O)(=O)CCNCc1ccc(-c2ccc3ncnc(Nc4ccc(OCc5cccc(F)c5)c(Cl)c4)c3c2)o1 [Lapatinib] (partner 2 µM)
In short: as §1

Apatinib + Dasatinib = compound: N#CC1(c2ccc(NC(=O)c3cccnc3NCc3ccncc3)cc2)CCCC1 [Apatinib] + Cc1nc(Nc2ncc(C(=O)Nc3c(C)cccc3Cl)s2)cc(N2CCN(CCO)CC2)n1 [Dasatinib] (partner 0.075 µM)
In short: as §1

Row | Cell Line | relative viability (Metformin + OSI-027; first compound 10 µM) | relative viability (Metformin + OSI-027; first compound 31.62 µM) | relative viability (Metformin + OSI-027; first compound 100 µM) | relative viability (Metformin + OSI-027; first compound 316.23 µM) | relative viability (Metformin + OSI-027; first compound 1000 µM) | relative viability (Metformin + Pictilisib; first compound 10 µM) | relative viability (Metformin + Pictilisib; first compound 31.62 µM) | relative viability (Metformin + Pictilisib; first compound 100 µM) | relative viability (Metformin + Pictilisib; first compound 316.23 µM) | relative viability (Metformin + Pictilisib; first compound 1000 µM) | relative viability (Apatinib + Lapatinib; first compound 0.08 µM) | relative viability (Apatinib + Lapatinib; first compound 0.253 µM) | relative viability (Apatinib + Lapatinib; first compound 0.8 µM) | relative viability (Apatinib + Lapatinib; first compound 2.53 µM) | relative viability (Apatinib + Lapatinib; first compound 8 µM) | relative viability (Apatinib + Dasatinib; first compound 0.08 µM) | relative viability (Apatinib + Dasatinib; first compound 0.253 µM) | relative viability (Apatinib + Dasatinib; first compound 0.8 µM) | relative viability (Apatinib + Dasatinib; first compound 2.53 µM) | relative viability (Apatinib + Dasatinib; first compound 8 µM)
1 | NCI-H1734 | 0.653 | 0.581 | 0.537 | 0.544 | 0.618 | 0.464 | 0.48 | 0.462 | 0.407 | 0.495 | 1.14 | 1.13 | 1.06 | 0.871 | 0.909 | 0.547 | 0.521 | 0.439 | 0.424 | 0.399
2 | NCI-H727 | 0.543 | 0.726 | 0.736 | 0.545 | 0.48 | 0.389 | 0.514 | 0.6 | 0.317 | 0.451 | 0.707 | 0.879 | 0.9 | 0.727 | 0.825 | 0.374 | 0.372 | 0.346 | 0.29 | 0.42
3 | LU99A | 0.302 | 0.321 | 0.3 | 0.309 | 0.289 | 0.248 | 0.295 | 0.247 | 0.27 | 0.241 | 1.02 | 1.07 | 0.969 | 0.821 | 0.954 | 0.526 | 0.565 | 0.523 | 0.486 | 0.416
4 | LXF-289 | 0.764 | 0.737 | 0.738 | 0.721 | 0.735 | 0.73 | 0.685 | 0.746 | 0.661 | 0.76 | 0.935 | 0.894 | 0.888 | 0.838 | 0.875 | 0.234 | 0.253 | 0.232 | 0.177 | 0.182
5 | UMC-11 | 0.594 | 0.549 | 0.539 | 0.426 | 0.505 | 0.864 | 0.972 | 0.806 | 0.716 | 0.902 | 1.15 | 0.917 | 0.83 | 0.972 | 0.901 | 0.518 | 0.515 | 0.42 | 0.442 | 0.394
6 | NCI-H1650 | 0.887 | 0.889 | 0.837 | 0.771 | 0.38 | 0.791 | 0.702 | 0.721 | 0.607 | 0.504 | 0.626 | 0.796 | 0.908 | 0.756 | 0.689 |  | 0.346 | 0.341 | 0.23 | 0.262
7 | NCI-H2405 | 0.567 | 0.573 | 0.608 | 0.606 | 0.559 | 0.469 | 0.518 | 0.322 | 0.373 | 0.389 | 0.959 | 1.3 | 1.1 | 0.975 | 0.992 | 0.215 | 0.207 | 0.202 | 0.159 | 0.192
